The source of these data is patent US10450260B2, “NO- and H2S-releasing compounds” (RESEARCH FOUNDATION OF THE CITY UNIVERSITY OF NEW YORK, priority 2011, dated 2019).

Each structure is given as a SMILES string. Read-outs that look alike come from different tables or passages of the source.

The test system of series [1] is MIA PaCa-2 human pancreatic cancer. The series is described as follows: MTT cell growth inhibition, MIA PaCa2. In kind it is cell-based. The note with it: for IC50: Homo sapiens, MIA PaCa-2; for Ratio NSAID/NOSH-NSAID, MIAPaCa2: fold-enhancement in potency over the parent compound. The protocol:
(§1) HT-29, SW-480 and HCT-15 human colon adenocarcinoma, MIA PaCa-2 and BxPC-3 human pancreatic cancer, LNCAP human prostate cancer, A549 human lung cancer, MCF-7 (estrogen receptor positive), MDA-MB 231 and SK-BR-3 (estrogen receptor negative) human breast cancer, and Jurkats human leukemia cell lines were obtained from American Type Tissue Collection (Manassas, Va.). All cells lines were grown as monolayers except for the Jurkats which were grown in suspension. The pancreatic and breast cancer cells were grown in Dulbecco's modified Eagle's medium, the prostate, Jurkat, SW-480 and HCT-15 colon cells were grown in RPMI 1640 medium, the lung cells were grown in F-12 and the colon HT-29 cells were grown in McCoy 5A. All media were supplemented with 10% fetal calf serum (Invitrogen, Carlsbad, Calif.) penicillin (50 U/ml), and streptomycin (50 μg/ml) (Invitrogen, Carlsbad, Calif.). Cells were seeded on culture dishes at a density of 25×10^3 cells/cm^2 and incubated at 37° C. in 5% CO2 and 90% relative humidity. Single cell suspensions were obtained by trypsinization (0.05% trypsin/EDTA), and cells were counted using a hemocytometer. Viability was determined by the trypan blue dye exclusion method.
(§2) Cell growth inhibitory effect of NOSH compounds were measured using a colorimetric MTT assay kit (Roche, Indianapolis, Ind.). Cancer cells were plated in 96-well plates at a density of 50,000 cells/well. The cells were incubated for 24 h with different concentrations of NOSH compounds. After the indicated time, 10 μl of MTT dye (3-[4,5-dimethylthiazol-2-yl]-2,5-diphenyl tetrazolium bromide, 5 mg/ml in phosphate buffered saline), was added to each well, and the plates were incubated for 2 hours at 37° C. Then, the media was aspirated, and add 100 μl of the solubilization solution (10% SDS in 0.01 M HCl) was added to each well to solubilize the formant crystals. The absorbance of the plates was measured on an ELISA reader at a wavelength of 570 nm. Each sample was performed in triplicate, and the entire experiment was repeated three times.
(§3) HT-29, SW-480 and HCT-15 human colon adenocarcinoma, MIA PaCa-2 and BxPC-3 human pancreatic cancer, LNCAP human prostate cancer, A549 and H383 human lung cancer, MCF-7, MDA-MB 231 and SK-BR-3 human breast cancer and Jurkat T cell human leukemia cell lines were obtained from American Type Tissue Collection (Manassas, Va.) All cells lines were grown as monolayers except for the Jurkat T cells which were grown as suspension culture. The pancreatic and breast cancer cells were grown in Dulbecco's modified Eagle's medium, the prostate, Jurkat, SW-480 and HCT-15 colon cells were grown in RPMI 1640 medium, the lung cells were grown in F-12 and the colon HT-29 cells were grown in McCoy 5A. All media were supplemented with 10% fetal calf serum (Invitrogen, Carlsbad, Calif.) penicillin (50 U/ml), and streptomycin (50 μg/ml) (Invitrogen, Carlsbad, Calif.). Cells were seeded on culture dishes at a density of 25×10^3 cells/cm^2 and incubated at 37° C. in 5% CO2 and 90% relative humidity. Single cell suspensions were obtained by trypsinization (0.05% trypsin/EDTA), and cells were counted using a hemacytometer. The final DMSO concentration was adjusted in all media to 1%. Viability was determined by the trypan blue dye exclusion method.
(§4) Cell growth inhibitory effect of all NOSH-NSAIDs was measured using a colorimetric MTT assay kit (Roche, Indianapolis, Ind.). Cancer cells were plated in 96-well plates at a density of 30,000-50,000 cells/well depending on cell type. The cells were incubated for 24 hours with different concentrations of NOSH-NSAIDs. After the indicated time, 10 μL of MTT dye (3-[4,5-dimethylthiazol-2-yl]-2,5-diphenyl tetrazolium bromide, 5 mg/mL in phosphate buffered saline), was added to each well, and the plates were incubated for 2 hours at 37° C. Then, the media was aspirated, and 100 μL of the solubilization solution (10% SDS in 0.01 M HCl) was added to each well to solubilize the formant crystals. […]

The subject of series [2] is gastric mucosa. Briefly: Gastric damage, ulcer index. In kind it is in vivo, rat. The note with it: rats, oral gavage, equimolar doses: ASA 180, NOSH-ASA 477, naproxen 80, NOSH-naproxen 188, sulindac 200, NOSH-sulindac 467 mg/kg; 6 h post-administration; vehicle UI=0. The protocol:
The institutional animal care and research committees approved all experimental procedures described herein. Male Wistar rats (4 per group) weighing 180-200 g were obtained from Charles River Laboratories International (Wilmington, Mass.). The rats were fed standard laboratory chow and water. Rats were fasted for 48 h with free access to drinking water. […] Stomachs were then rapidly removed, cut along the greatest curvature, and rinsed with ice-cold distilled water. […] Tissues from stomachs were excised and processed for measurement of Prostaglandin E2 (PGE2), malondialdehyde (MDA) and Superoxide dismutase (SOD) activity.

Series [3] concerns the target T1, ovine COX-2 (Ovis aries, UniProt P79208).
T1 construct: purchased Cayman Chemicals (Ann Arbor, Mich.)
T1 sequence (P79208 17-603): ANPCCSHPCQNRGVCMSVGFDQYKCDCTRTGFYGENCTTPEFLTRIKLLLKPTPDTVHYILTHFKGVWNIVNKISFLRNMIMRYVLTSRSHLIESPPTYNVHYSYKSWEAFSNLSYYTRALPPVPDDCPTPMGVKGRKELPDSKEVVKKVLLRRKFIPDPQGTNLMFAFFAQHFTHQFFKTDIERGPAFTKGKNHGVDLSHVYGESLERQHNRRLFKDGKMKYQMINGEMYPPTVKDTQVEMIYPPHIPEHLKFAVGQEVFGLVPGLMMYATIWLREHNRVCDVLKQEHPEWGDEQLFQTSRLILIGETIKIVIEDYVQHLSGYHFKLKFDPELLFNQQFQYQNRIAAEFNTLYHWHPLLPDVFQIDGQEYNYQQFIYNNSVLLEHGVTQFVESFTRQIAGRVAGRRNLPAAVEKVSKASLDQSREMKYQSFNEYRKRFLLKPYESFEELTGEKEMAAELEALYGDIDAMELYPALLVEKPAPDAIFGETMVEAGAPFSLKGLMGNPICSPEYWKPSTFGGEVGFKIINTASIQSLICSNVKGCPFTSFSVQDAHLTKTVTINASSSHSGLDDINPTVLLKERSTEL
Briefly: COX-2 enzyme activity, colorimetric inhibitor screening kit. Format: biochemical. Particulars: for inhibition at 3000 µM: read-out: COX-2-% Inhibition, 3 mM (Table 8).

The test system of series [4] is MDA-MB 231 human breast cancer. The series is described as follows: MTT cell growth inhibition, MDA MB231. Format: cell-based. Particulars: for IC50: Homo sapiens, MDA-MB-231; for Ratio NSAID/NOSH-NSAID, MDA MB231: fold-enhancement in potency over the parent compound. The protocol: as §1, §2, §3, §4
[5] abbreviates: 24 hours, read-out: IC50 for cell growth inhibition, Pancreas MIA PaCa2.
The mark [6] stands for this setting: 24 hours (Table 7), read-out: IC50 for cell growth inhibition, Pancreas MIAPaCa2.

As to `O=C(CCCO[N+](=O)[O-])Oc1ccccc1C(=O)Oc1ccc(-c2cc(=S)ss2)cc1` [NOSH-1, 4-(3-thioxo-3H-1,2-dithiol-5-yl)phenyl 2-((4-(nitrooxy)butanoyl)oxy)benzoate], the IC50 – broadly, the concentration at which inhibition is half-maximal – in series [1] (setting [5]) stood at 0.047 ± 0.005 µM; in series [4] (24 hours) it was 0.1 ± 0.011 µM. The “gastric damage score, ulcer index (UI)” value in series [2] is on record as 2. Moreover, the inhibition (as a rule, how much of the control response was suppressed) at 0.025 µM in series [3] (25 nM (Table 6)) turned out to be 5.4 ± 0.7%. Besides, the inhibition at 0.05 µM came out at 14.5 ± 1% in series [3] (50 nM (Table 6)) and 23.3% in series [3] (50 nM (Table 8)). Further, in series [3] (50 nM (Table 8), listed as NOSH-ASA, 0.05 µM), the “COX-2-% Inhibition” value came out at 20.9%. The inhibition at 0.1 µM in series [3] (100 nM (Table 6)) was 27.2 ± 0.7%; in series [3] (100 nM (Table 8)), 29.1%.

On to `NC(=S)c1ccc(OC(=O)c2ccccc2OC(=O)CCCO[N+](=O)[O-])cc1` [NOSH-3, 4-carbamothioylphenyl 2-((4-(nitrooxy)butanoyl)-oxy)benzoate], for which the values for the IC50 in series [1] (setting [5]) and in series [4] (24 hours) were 4.8 ± 0.322 µM and 6 ± 0.22 µM, respectively.

As to `CC(=O)Oc1ccccc1C(=O)O` [ASA, aspirin, reference compound], the “COX-2-% Inhibition” value in series [3] (1 mM, 15 min at 4° C. (Table 8)) is recorded as 70.2%. In addition, the inhibition at 1000 µM in series [3] (read-out: COX-2 % Inhibition, 1 mM (Table 6)) came out at 50.6 ± 1.1%; in series [3] (read-out: COX-2-% Inhibition, 1 mM, 15 min at 4° C. (Table 8)), 68.4%. The inhibition at 3000 µM in series [3] was determined as 74.6%.

As for `CC1=C(CC(=O)O)c2cc(F)ccc2/C1=C\c1ccc([S+](C)[O-])cc1` (stereo not drawn) [sulindac, reference compound], the IC50 in series [1] (setting [6]) amounted to 792 µM; in series [4] (24 hours (Table 7)), 935 µM. The “gastric damage score, ulcer index (UI)” value in series [2] amounted to 130. The compound further returned an inhibition at 800 µM in series [3] (800 μM (Table 8)) of 66.8%. In addition, the “COX-2-% Inhibition” value in series [3] (800 μM (Table 8), 800 µM) is 68.5%. Further, the inhibition at 1600 µM in series [3] (1600 μM (Table 8)) is 71.1%.

With `O=C(CCC(=O)Oc1ccccc1C(=O)Oc1ccc(-c2cc(=S)ss2)cc1)OCCCCO[N+](=O)[O-]` [NOSH-2, 4-(nitrooxy)butyl (2-((4-(3-thioxo-3H-1,2-dithiol-5-yl)phenoxy)carbonyl)phenyl) succinate], the IC50 in series [1] (setting [5]) stood at 0.102 ± 0.018 µM; in series [4] (24 hours) it was 0.085 ± 0.008 µM.

For the compound `COc1ccc2cc([C@H](C)C(=O)O)ccc2c1` [naproxen, reference compound], the IC50 in series [1] (setting [6]) stood at 3200 µM; in series [4] (24 hours (Table 7)) it was 2900 µM. Further, in series [3] (3 mM (Table 8)), the “COX-2-% Inhibition” value worked out at 70.2%. In series [3], the inhibition at 3000 µM amounted to 68.6%. The inhibition at 6000 µM in series [3] (read-out: COX-2-% Inhibition, 6 mM (Table 8)) amounted to 74.6%.

In the case of `CC1=C(CC(=O)Oc2ccc(OC(=O)CCCO[N+](=O)[O-])c(C(=O)Oc3ccc(-c4cc(=S)ss4)cc3)c2)c2cc(F)ccc2/C1=C/c1ccc([S+](C)[O-])cc1` (stereo not drawn) [NOSH-8, (E)-4-(3-thioxo-3H-1,2-dithiol-5-yl)phenyl 5-(2-(5-fluoro-2-methyl-1-(4-(methylsulfinyl)benzylidene)-1H-inden-3-yl)acetoxy)-2-((4-(nitrooxy)butanoyl)oxy)benzoate], the IC50 in series [1] (setting [6]) and in series [4] (24 hours (Table 7)) was 0.098 µM each time. Further, the “Ratio NSAID/NOSH-NSAID, MIAPaCa2” value in series [1] is on record as 8,081. In series [2], the “gastric damage score, ulcer index (UI)” value worked out at 10. The compound further returned an inhibition at 0.089 µM in series [3] (89 nM (Table 8)) of 13.6%. Further, the “COX-2-% Inhibition” value in series [3] (89 nM (Table 8), listed as NOSH-SULINDAC, 0.089 µM) amounted to 12.3%. In addition, in series [4], the “Ratio NSAID/NOSH-NSAID, MDA MB231” value is 9,540.

As for `O=C(CCCC[C@@H]1CCSS1)Oc1ccccc1C(=O)OCCCCO[N+](=O)[O-]` [NOSH-4, (R)-4-(nitrooxy)butyl 2-((5-(1,2-dithiolan-3-yl)pentanoyl)oxy)benzoate], the 50% inhibitory concentration (IC50) in series [1] (setting [5]) was determined as 0.8 ± 0.039 µM; in series [4] (24 hours), 0.8 ± 0.022 µM.

In the case of `CC(C(=O)Oc1ccc(-c2cc(=S)ss2)cc1)c1ccc2cc(OC(=O)CCCO[N+](=O)[O-])ccc2c1` (stereo not drawn) [NOSH-7, 6-(1-oxo-1-(4-(3-thioxo-3H-1,2-dithiol-5-yl)phenoxy)propan-2-yl)naphthalen-2-yl 4-(nitrooxy)butanoate], the IC50 in series [1] (setting [6]) is 0.095 µM; in series [4] (24 hours (Table 7)), 0.11 µM. Moreover, in series [1], the “Ratio NSAID/NOSH-NSAID, MIAPaCa2” value is on record as 33,684. For the same compound, the “gastric damage score, ulcer index (UI)” value in series [2] is reported as 2. In series [3] (80 nM (Table 8)), this compound registered an inhibition at 0.08 µM of 18.8%. Besides, in series [3] (80 nM (Table 8), listed as NOSH-NAPROXEN, 0.08 µM), the “COX-2-% Inhibition” value was found to be 15.8%. Besides, the inhibition at 0.16 µM in series [3] (160 nM (Table 8)) was 11%. Further, the “Ratio NSAID/NOSH-NSAID, MDA MB231” value in series [4] is given as 26,363.
